Data taken from patent US9663473B2 (Actelion Pharmaceuticals Ltd, priority 2013, dated 2017).
Where a name gives a salt, the structure may show the parent alone.

Biological target: T1, recombinant human ALX receptor (Homo sapiens, UniProt P25090)
T1 construct: expressed in transfected cells; host or cells: HEK293 (HEK293-hALXR-Gα16)
T1 sequence (P25090 1-351): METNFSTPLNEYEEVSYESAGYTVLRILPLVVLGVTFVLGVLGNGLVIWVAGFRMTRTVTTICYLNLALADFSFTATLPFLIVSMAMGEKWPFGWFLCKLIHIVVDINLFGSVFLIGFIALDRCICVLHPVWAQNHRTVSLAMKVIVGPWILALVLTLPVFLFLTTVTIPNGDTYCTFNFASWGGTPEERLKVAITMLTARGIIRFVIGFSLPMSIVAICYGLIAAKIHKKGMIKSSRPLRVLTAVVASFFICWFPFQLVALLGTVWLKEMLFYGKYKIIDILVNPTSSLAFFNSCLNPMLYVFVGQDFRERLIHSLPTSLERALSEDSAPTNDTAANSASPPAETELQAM
Assay: Intracellular calcium measurements (FLIPR), ALX receptor agonistic activity
Format: cell-based
Settings: HEK293-hALXR-Gα16 cells, Fluo-4 calcium signal, normalized to WKYMVm 10 nM
Summary of the method: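 HEK293 cells co-expressing human ALX receptor and Gα16 were loaded with 1 μM Fluo-4 AM for 60 min at 37° C., then exposed to serially diluted compounds on FLIPR Tetra. Peak fluorescence above baseline (ex 488/em 540 nm) was normalized to 10 nM WKYMVm as high control.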

Structure (SMILES) | EC50
Cc1ccc(C[C@@H](NC(=O)N[C@H]2CC[C@H](O)CC2)c2nc3ccccc3[nH]2)cc1 [Example 191, 1-((R)-1-(1H-Benzo[d]imidazol-2-yl)-2-(p-tolyl)ethyl)-3-(trans-4-hydroxycyclohexyl)urea] | 31 nM
COc1ccc(CC(NC(=O)NC23CCC(O)(CC2)CC3)c2nc3ccccc3[nH]2)c(F)c1F (single isomer, unassigned; ent-1) [Example 266, 1-(1-(1H-Benzo[d]imidazol-2-yl)-2-(2,3-difluoro-4-methoxyphenyl)ethyl)-3-(4-hydroxybicyclo[2.2.2]octan-1-yl)urea (ent-1)] | 3.3 nM
COc1ccc(C[C@@H](NC(=O)NCc2ccnn2-c2ccc(OC)cc2)c2nc3ccccc3[nH]2)cc1 [Example 294, (R)-1-(1-(1H-Benzo[d]imidazol-2-yl)-2-(4-methoxyphenyl)ethyl)-3-((1-(4-methoxyphenyl)-1H-pyrazol-5-yl)methyl)urea] | 7.6 nM
COc1ccc(C[C@@H](NC(=O)N[C@H]2CC[C@H](O)CC2)c2nc3cc(F)ccc3[nH]2)cc1 [Example 85, 1-((R)-1-(5-Fluoro-1H-benzo[d]imidazol-2-yl)-2-(4-methoxyphenyl)ethyl)-3-(trans-4-hydroxycyclohexyl)urea] | 1.6 nM
COc1ccc(CC(NC(=O)NC23CCC(O)(CC2)CC3)c2nc3ccc(F)cc3[nH]2)c(F)c1 (single isomer, unassigned; ent-1) [Example 263, 1-(1-(6-Fluoro-1H-benzo[d]imidazol-2-yl)-2-(2-fluoro-4-methoxyphenyl)ethyl)-3-(4-hydroxybicyclo[2.2.2]octan-1-yl)urea (ent-1)] | 1.4 nM
COc1ccc(CC(NC(=O)N[C@H]2CC[C@H](O)CC2)c2nc3ccc(F)cc3[nH]2)cc1F (single isomer, unassigned; ent-1) [Example 318, 1-(1-(6-Fluoro-1H-benzo[d]imidazol-2-yl)-2-(3-fluoro-4-methoxyphenyl)ethyl)-3-(trans-4-hydroxycyclohexyl)urea (ent-1)] | 1.2 nM
O=C(N[C@H](Cc1ccc(Br)cc1)c1nc2ccc(F)cc2[nH]1)NC12CCC(O)(CC1)CC2 [Example 195, (R)-1-(2-(4-Bromophenyl)-1-(6-fluoro-1H-benzo[d]imidazol-2-yl)ethyl)-3-(4-hydroxybicyclo[2.2.2]octan-1-yl)urea] | 1.1 nM
COc1ccc(C[C@@H](NC(=O)NC2CCN(C3CC3)CC2)c2nc3ccccc3[nH]2)cc1 [Example 71, (R)-1-(1-(1H-Benzo[d]imidazol-2-yl)-2-(4-methoxyphenyl)ethyl)-3-(1-cyclopropylpiperidin-4-yl)urea] | 53 nM
COc1ccc(C[C@@H](NC(=O)N[C@@H](C)c2cccc(OC)c2)c2nc3ccccc3[nH]2)cc1 [Example 323, 1-((R)-1-(1H-Benzo[d]imidazol-2-yl)-2-(4-methoxyphenyl)ethyl)-3-((S)-1-(3-methoxyphenyl)ethyl)urea] | 44 nM
CCc1ccc(CC(NC(=O)N[C@H]2CC[C@H](O)CC2)c2nc3cc(F)ccc3[nH]2)cc1 (single isomer, unassigned; ent-2) [Example 374, 1-(2-(4-Ethylphenyl)-1-(5-fluoro-1H-benzo[d]imidazol-2-yl)ethyl)-3-(trans-4-hydroxycyclohexyl)urea (ent-2)] | 597 nM
O=C(NC(Cc1ccc(C(F)(F)F)c(F)c1)c1nc2ccccc2[nH]1)NC12CCC(O)(CC1)CC2 (centres unmarked) [Example 238, 1-(1-(1H-Benzo[d]imidazol-2-yl)-2-(3-fluoro-4-(trifluoromethyl)phenyl)ethyl)-3-(4-hydroxybicyclo[2.2.2]octan-1-yl)urea] | 36 nM
COc1cc(F)c(CC(NC(=O)NC23CCC(O)(CC2)CC3)c2nc3ccccc3[nH]2)cc1F (centres unmarked) [Example 249, 1-(1-(1H-Benzo[d]imidazol-2-yl)-2-(2,5-difluoro-4-methoxyphenyl)ethyl)-3-(4-hydroxybicyclo[2.2.2]octan-1-yl)urea] | 4.2 nM
O=C(N[C@H](Cc1ccc(Cl)cc1)c1nc2ccccc2[nH]1)N[C@H]1CC[C@H](O)CC1 [Example 123, 1-((R)-1-(1H-Benzo[d]imidazol-2-yl)-2-(4-chlorophenyl)ethyl)-3-(trans-4-hydroxycyclohexyl)urea] | 44 nM
O=C(N[C@H](Cc1ccc(Br)cc1)c1nc2ccc(F)cc2[nH]1)N[C@H]1CC[C@H](O)CC1 [Example 133, 1-((R)-2-(4-Bromophenyl)-1-(6-fluoro-1H-benzo[d]imidazol-2-yl)ethyl)-3-(trans-4-hydroxycyclohexyl)urea] | 3.4 nM
COc1ccc(C[C@@H](NC(=O)NCc2nccnc2OCC(F)(F)F)c2nc3ccccc3[nH]2)cc1 [Example 217, (R)-1-(1-(1H-Benzo[d]imidazol-2-yl)-2-(4-methoxyphenyl)ethyl)-3-((3-(2,2,2-trifluoroethoxy)pyrazin-2-yl)methyl)urea] | 19 nM
COC[C@@H](NC(=O)N[C@H](Cc1ccc(OC)cc1)c1nc2ccccc2[nH]1)c1ccccc1 [Example 200, 1-((R)-1-(1H-Benzo[d]imidazol-2-yl)-2-(4-methoxyphenyl)ethyl)-3-((S)-2-methoxy-1-phenylethyl)urea] | 53 nM
COc1ccc(CC(NC(=O)Nc2ccnn2-c2ccc(OC)cc2)c2nc3ccccc3[nH]2)cc1 (centres unmarked) [Example 406, 1-(1-(1H-benzo[d]imidazol-2-yl)-2-(4-methoxyphenyl)ethyl)-3-(1-(4-methoxyphenyl)-1H-pyrazol-5-yl)urea] | 182 nM

Other lines, results leading:

EC50 | Structure (SMILES)
746 nM | COc1ccc(C[C@@H](NC(=O)NCCC(N)=O)c2nc3ccccc3[nH]2)cc1 [Example 110, (R)-3-(3-(1-(1H-Benzo[d]imidazol-2-yl)-2-(4-methoxyphenyl)ethyl)ureido)propanamide]
61 nM | CCn1nccc1NC(=O)NC(Cc1ccc(OC)cc1)c1nc2ccccc2[nH]1 (centres unmarked) [Example 417, 1-(1-(1H-benzo[d]imidazol-2-yl)-2-(4-methoxyphenyl)ethyl)-3-(1-ethyl-1H-pyrazol-5-yl)urea]
400 nM | COc1ccc(C[C@@H](NC(=O)N2CCCCC2)c2nc3ccccc3[nH]2)cc1 [Example 86, (R)—N-(1-(1H-Benzo[d]imidazol-2-yl)-2-(4-methoxyphenyl)ethyl)piperidine-1-carboxamide]
87 nM | COc1ccc(C[C@@H](NC(=O)NC2CCNC2)c2nc3ccccc3[nH]2)cc1 (stereo partly drawn) [Example 100, 1-((R)-1-(1H-Benzo[d]imidazol-2-yl)-2-(4-methoxyphenyl)ethyl)-3-(pyrrolidin-3-yl)urea]
99 nM | CCOc1ccccc1CCNC(=O)N[C@H](Cc1ccc(OC)cc1)c1nc2ccccc2[nH]1 [Example 73, (R)-1-(1-(1H-Benzo[d]imidazol-2-yl)-2-(4-methoxyphenyl)ethyl)-3-(2-ethoxyphenethyl)urea]
195 nM | COc1ccc(C[C@@H](NC(=O)NCCCO)c2nc3ccccc3[nH]2)cc1 [Example 95, (R)-1-(1-(1H-Benzo[d]imidazol-2-yl)-2-(4-methoxyphenyl)ethyl)-3-(3-hydroxypropyl)urea]
127 nM | CC[C@H](NC(=O)N[C@H](Cc1ccc(OC)cc1)c1nc2ccccc2[nH]1)c1ccccc1 [Example 345, 1-((R)-1-(1H-Benzo[d]imidazol-2-yl)-2-(4-methoxyphenyl)ethyl)-3-((S)-1-phenylpropyl)urea]
287 nM | COc1ccc(C[C@@H](NC(=O)N[C@H](C)c2ccccc2)c2nc3ccccc3[nH]2)cc1 [Example 349, 1-((R)-1-(1H-Benzo[d]imidazol-2-yl)-2-(4-methoxyphenyl)ethyl)-3-((R)-1-phenylethyl)urea]
1240 nM | COc1ccc(C[C@@H](NC(=O)NC(C)c2ccncn2)c2nc3ccccc3[nH]2)cc1 (stereo partly drawn) [Example 386, 1-((R)-1-(1H-Benzo[d]imidazol-2-yl)-2-(4-methoxyphenyl)ethyl)-3-(1-(pyrimidin-4-yl)ethyl)urea]
3.1 nM | COc1ccc(C[C@@H](NC(=O)N[C@H]2CC[C@](C)(O)CC2)c2nc3ccccc3[nH]2)cc1 [Example 173, 1-((R)-1-(1H-Benzo[d]imidazol-2-yl)-2-(4-methoxyphenyl)ethyl)-3-(trans-4-hydroxy-4-methylcyclohexyl)urea]
143 nM | COc1ccc(C[C@@H](NC(=O)N[C@H]2CCC[C@@H]2O)c2nc3ccccc3[nH]2)cc1 [Example 115, 1-((R)-1-(1H-Benzo[d]imidazol-2-yl)-2-(4-methoxyphenyl)ethyl)-3-((1S,2S)-2-hydroxycyclopentyl)urea]
102 nM | COc1ccc(C[C@@H](NC(=O)NCCN2CCc3ccccc32)c2nc3ccccc3[nH]2)cc1 [Example 286, (R)-1-(1-(1H-Benzo[d]imidazol-2-yl)-2-(4-methoxyphenyl)ethyl)-3-(2-(indolin-1-yl)ethyl)urea]
1780 nM | COc1ccc(C[C@@H](NC(=O)N[C@H](C)C2CCCCC2)c2nc3ccccc3[nH]2)cc1 [Example 383, 1-((R)-1-(1H-Benzo[d]imidazol-2-yl)-2-(4-methoxyphenyl)ethyl)-3-((R)-1-cyclohexylethyl)urea]
13 nM | COc1ccc(CC(NC(=O)NC2CCC(CO)CC2)c2nc3ccccc3[nH]2)cc1 (centres unmarked) [Example 74, 1-(1-(1H-Benzo[d]imidazol-2-yl)-2-(4-methoxyphenyl)ethyl)-3-(4-(hydroxymethyl)cyclohexyl)urea]
82 nM | COc1ccc(C[C@@H](NC(=O)NCC2CCCO2)c2nc3ccccc3[nH]2)cc1 (stereo partly drawn) [Example 57, 1-((R)-1-(1H-Benzo[d]imidazol-2-yl)-2-(4-methoxyphenyl)ethyl)-3-((tetrahydrofuran-2-yl)methyl)urea hydrochloride]
